The values that follow come from US20080176862A1, “New Compounds 617” (ASTRAZENECA AB, priority 2006, published 2008).

In general, IC50 refers to the midpoint of a concentration-inhibition curve.

Counter-ions that a name gives are not always drawn.

This test addresses T1, human β-Secretase (soluble part, AA1-AA460; sBACE-Fc) (Homo sapiens, UniProt P56817).
T1 construct: The soluble part of the human β-Secretase (AA1-AA460) was cloned into the ASP2-Fc10-1-IRES-GFP-neoK mammalian expression vector; made in house
Briefly: TR-FRET assay. Type of test: biochemical. The settings on record: substrate (Europium)CEVNLDAEFK(Qsy7) 100 nM, pH 4.5, 15 min at RT; read-out: IC50 (nM) in TR-FRET assay. (In general: In TR-FRET formats the signal depends on donor and acceptor labels being close together.)

T1 sequence (P56817 22-460): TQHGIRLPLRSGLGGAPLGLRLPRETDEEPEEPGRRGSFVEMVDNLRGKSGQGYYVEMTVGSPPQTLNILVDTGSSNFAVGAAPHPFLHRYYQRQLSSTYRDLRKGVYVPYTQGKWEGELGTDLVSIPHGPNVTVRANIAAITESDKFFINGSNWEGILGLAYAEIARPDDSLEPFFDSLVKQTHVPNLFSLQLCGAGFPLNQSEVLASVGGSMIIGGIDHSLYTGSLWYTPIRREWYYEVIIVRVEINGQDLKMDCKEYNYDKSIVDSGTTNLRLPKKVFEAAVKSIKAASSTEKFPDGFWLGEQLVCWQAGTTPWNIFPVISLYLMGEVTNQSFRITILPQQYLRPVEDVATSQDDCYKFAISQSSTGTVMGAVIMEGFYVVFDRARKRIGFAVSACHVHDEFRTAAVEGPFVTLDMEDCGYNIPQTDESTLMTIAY

As to `COc1cc(OS(C)(=O)=O)cc(-c2cccc(C3(c4cc(C)nc(C)c4)N=C(N)N(C)C3=O)c2)c1` (centres unmarked) [Example 305, 3′-(2-Amino-4-(2,6-dimethylpyridin-4-yl)-1-methyl-5-oxo-4,5-dihydro-1H-imidazo-4-yl)-5-methoxybiphenyl-3-yl methanesulfonate hydrochloride], the IC50 turned out to be 101 nM.
Turning to `Cc1cc(C2(c3cccc(-c4cc(Cl)cc(OS(C)(=O)=O)c4)c3)N=C(N)N(C)C2=O)cc(C)n1` (centres unmarked) [Example 306, 3′-(2-Amino-4-(2,6-dimethylpyridin-4-yl)-1-methyl-5-oxo-4,5-dihydro-1H-imidazo-4-yl)-5-chlorobiphenyl-3-yl methanesulfonate hydrochloride], the IC50 is 89 nM.
In the case of `Cc1cc(C2(c3ccc(F)c(-c4cc(Cl)cc(OS(C)(=O)=O)c4)c3)N=C(N)N(C)C2=O)ccn1` (centres unmarked) [Example 307, 5′-(2-Amino-1-methyl-4-(2-methylpyridin-4-yl)-5-oxo-4,5-dihydro-1H-imidazol-4-yl)-5-chloro-2′-fluorobiphenyl-3-yl methanesulfonate hydrochloride] it was 104 nM.
In the case of `CN1C(=O)C(c2cccc(-c3cc(Cl)cc(OS(C)(=O)=O)c3)c2)(c2ccnc(Cl)c2)N=C1N` (centres unmarked) [Example 311, 3′-(2-Amino-4-(2-chloropyridin-4-yl)-1-methyl-5-oxo-4,5-dihydro-1H-imidazol-4-yl)-5-chlorobiphenyl-3-yl methanesulfonate hydrochloride] it was 24 nM.
In the case of `COc1cc(OS(C)(=O)=O)cc(-c2cccc(C3(c4ccnc(Cl)c4)N=C(N)N(C)C3=O)c2)c1` (centres unmarked) [Example 312, 2-Amino-5-(2-chloropyridin-4-yl)-5-[3-(3-methoxy-5-methylsulfonyloxy-phenyl)phenyl]-3-methyl-imidazol-4-one hydrochloride] it was 26 nM.
